For 11 compounds, GI50 and TGI results are on record in PubChem BioAssay (NCI).

Test in all cases: inhibition of tumour cell growth, NCI panel, 48 h
Assay [1] concerns HCT-15 colon.
Assay [2] concerns HL-60(TB) leukemia.
For assay [3], the system named is HS 578T breast.
The subject of assay [4] is HT29 colon.
Assay [5] deals with LOX IMVI melanoma.
In assay [6] the test system is NCI-H460 lung.
Assay [7] relates to SF-295 CNS.
Assay [8] has as its system SK-MEL-2 melanoma.
Assay [9] relates to SK-MEL-5 melanoma.
In assay [10] the test system is SNB-19 CNS.

Structures are written as SMILES. Where “and” joins values, the source holds several entries; their conditions need not be identical. Equal values may be shown once.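 Cells were grown in 96-well plates and exposed to each compound for 48 hours at five concentrations; endpoints were interpolated linearly between bracketing concentrations, or set to the highest concentration if not reached. GI50 marks 50% less growth. TGI marks complete inhibition of growth.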

Consider `CC(CN1CCN(C)CC1)CN1c2ccccc2Sc2ccc(C(F)(F)F)cc21` (centres undefined), for which the GI50 in assay [1] was 1.81 µM; in [2], 1.92 µM; in assay [3], 1.88 µM; in [4], 1.8 µM; in [5] it was 1.68 µM; in assay [6], 1.93 µM. Besides, the GI50 was 1.97 µM in [7], 2.09 µM in [8], 1.61 µM in assay [9] and 2.08 µM in assay [10]. The TGI amounted to 3.95 µM in assay [1]; 4.1 µM in [2]; 5.8 µM in assay [3]; 3.27 µM in assay [4]; 3.25 µM in [5]; 3.84 µM in assay [6]. In addition, the TGI in assay [7] was 4.31 µM; in assay [8], 3.74 µM; in assay [9], 2.99 µM; in assay [10] it was 4.32 µM.

`C=C1CC2(C[C@@H](c3ccccc3)O[C@@H](c3ccccc3)C2)OC1=O` (some centres undefined): the TGI is 5.91 µM in assay [1]; 2.84 µM in assay [2]; 9.44 µM in assay [3]; 8.97 µM in [4]; 2.84 µM in [5]; 23.3 µM in assay [6]. Also, the TGI stood at 26.8 µM in [7], 11.3 µM in [8], 8.83 µM in assay [9] and 29.7 µM in assay [10].

For the compound `O=Cc1cn(Cc2cccc(Cl)c2)c2ccccc12`, the GI50 in assay [1] is 11.6 µM; in assay [2], 7.5 µM; in [3] it was 7.27 µM; in assay [4] it was 13 µM; in assay [5], 7.4 µM; in [6], less than 0.0112 µM. The GI50 in assay [7] is 0.948 µM; in [8] it was 7.7 µM; in [9], 4.1 µM; in assay [10], 12.9 µM. For the same compound, the TGI is 25.2 µM in assay [1]; 29.9 µM in assay [2]; 34.1 µM in [3]; 32.3 µM in assay [4]; 21 µM in assay [5]; 15.5 µM in [6]. The TGI was found to be 14.2 µM in assay [7], 26.4 µM in assay [8], 17.4 µM in assay [9] and 27.3 µM in [10].

Consider `C=C(C)[C@@H]1CC[C@]2(C(=O)NCCNCCNCCN)CC[C@]3(C)[C@H](CC[C@@H]4[C@@]5(C)CC[C@H](O)C(C)(C)[C@@H]5CC[C@]43C)[C@@H]12`, for which the GI50 was 11.5 µM in assay [1]; 7.33 µM in assay [2]; 20.1 µM in assay [3]; 14.6 µM in [4]; 14.9 µM in [5]; 14.7 µM in [6]. In addition, the GI50 in assay [7] was 13.8 µM; in [8] it was 16.8 µM; in [9], 11.1 µM; in [10], 12.9 µM. Also, the TGI in assay [1] was 26.1 µM; in assay [2], 31.2 µM; in [3] it was 66.7 µM; in assay [4], 34 µM; in [5], 28.6 µM; in assay [6], 32 µM. Moreover, the TGI turned out to be 30.3 µM in assay [7], 37.3 µM in assay [8], 23.4 µM in assay [9] and 28.2 µM in assay [10].

On to `CC(C)[C@@]12C[C@@H](OC(=O)COC(=O)/C=C/c3ccccc3)[C@@](C)(O1)[C@@H]1CC[C@@H](C)[C@H]1[C@@H]2OC(=O)/C=C/c1ccccc1`, for which the GI50 in assay [1] is greater than 100 µM; in [2], greater than 92.2 µM; in assay [3], 0.0187 µM; in assay [4], greater than 100 µM; in assay [5] it was greater than 100 µM; in assay [6], greater than 100 µM. Besides, the GI50 in assay [7], in [8], in assay [9] and in assay [10] was greater than 100 µM throughout. For the same compound, the TGI was greater than 100 µM in assay [1]; greater than 100 µM in [2]; 0.0774 µM in [3]; greater than 100 µM in assay [4]; greater than 100 µM in [5]; greater than 100 µM in assay [6]. Also, the TGI in assay [7], in assay [8], in assay [9] and in assay [10] was greater than 100 µM each time.

Take `Cc1nc2sc(C(=O)Nc3cccc4ccccc34)c(N)c2cc1C(=O)/C=C/c1ccccc1`: the GI50 was 0.185 µM in assay [1]; 0.353 µM in [2]; 0.281 µM in assay [3]; 0.173 µM in assay [4]; 0.183 µM in assay [5]; 0.411 µM in [6]. Also, the GI50 was 0.514 µM in [7], 0.501 µM in assay [8], 0.379 µM in assay [9] and 0.534 µM in [10]. Further, the TGI is 0.789 µM in assay [1]; 1.82 µM in [2]; greater than 50 µM in assay [3]; 1.06 µM in assay [4]; 0.64 µM in [5]; 2.34 µM in [6]. Moreover, the TGI was 3.89 µM in [7], greater than 39 µM in assay [8], 1.69 µM in [9] and greater than 17 µM in assay [10].

For `COc1cc(C(O)c2nc3ccccc3s2)cc(OC)c1OC` (centres undefined), the GI50 in assay [1] is greater than 100 µM; in [2], 14.2 µM; in [3], 40.5 µM; in assay [4] it was greater than 100 µM; in [5], 50.6 µM; in assay [6], 30.9 µM. The GI50 was 6.29 µM in [7], greater than 100 µM in [8], 7.35 µM in assay [9] and greater than 100 µM in assay [10]. Also, the TGI in assay [1], in assay [2], in assay [3], in assay [4], in assay [5] and in assay [6] was greater than 100 µM each time. The TGI in assay [7] is greater than 100 µM; in assay [8], greater than 100 µM; in assay [9], 79.5 µM; in [10], greater than 100 µM.

Consider `COc1ccc(C(=O)COc2cccc(/C=C3\CSc4ccccc4C3=O)c2)cc1`, for which the GI50 in assay [1] is 2.08 µM; in assay [2], 2.25 µM; in assay [3], 0.424 µM; in assay [4], 1.55 µM; in assay [5], 1.54 µM; in [6], 3.56 µM. Moreover, the GI50 was 1.87 µM in assay [7], 1.86 µM in assay [8], 1.78 µM in assay [9] and 2.77 µM in [10]. The TGI in assay [1] was 6.07 µM; in assay [2], greater than 23.2 µM; in assay [3], 4.91 µM; in [4], 3.18 µM; in [5], 2.98 µM; in assay [6] it was 12 µM. Besides, the TGI is 3.77 µM in [7], 3.49 µM in assay [8], 3.27 µM in [9] and 8.73 µM in assay [10].

On to `CCc1ccccc1N1CCN(C(=O)c2cc(OC)c(OC)c(OC)c2)CC1`, for which the TGI was greater than 23.6 µM in assay [1]; 1.62 µM in [2]; 0.0608 µM in assay [3]; 0.617 µM in assay [4]; 29.3 µM in [5]; 2.8 µM in [6]. The TGI in assay [7] is 0.0341 µM; in assay [8], 2.78 µM; in assay [9] it was 3.79 µM; in [10] it was greater than 56 µM.

Regarding `O=C1/C(=C/c2ccccc2F)CNC/C1=C\c1ccccc1F`, the GI50 in assay [1] was 0.196 µM and 0.291 µM; in assay [2] it was 0.371 µM and 2.04 µM; in [3], 0.533 µM and 4.11 µM; in assay [4], 0.261 µM and 0.242 µM; in [5], 0.318 µM and 0.186 µM; in assay [6], 0.693 µM and 0.458 µM. Further, the GI50 in [7] is 0.707 µM and 0.531 µM; in assay [8], 2.53 µM and 2.77 µM; in assay [9] it was 1.22 µM and 1.59 µM; in assay [10], 0.643 µM and 1.01 µM. Also, the TGI in assay [1] was 0.511 µM and 1.16 µM; in assay [2], 1.96 µM and 6.92 µM; in [4] it was 1.17 µM and 0.543 µM; in assay [5] it was 1.22 µM and 0.461 µM; in assay [6], 3.29 µM and 3.3 µM; in [7] it was 3.5 µM and 1.71 µM. Also, the TGI in assay [8] was 6.18 µM and 6.46 µM; in assay [9] it was 2.85 µM and 3.05 µM; in [10], 2.66 µM and 3.99 µM.

As for `O=C1c2ccc3c4c5ccc(c24)C(=O)N1CCCOCCCCOCCCNCc1ccc(cc1)CNCCCOCCCCOCCCN(C3=O)C5=O`, the GI50 in assay [1] was 0.926 µM; in assay [2] it was 1.01 µM; in [3] it was 1.4 µM; in assay [4], 0.956 µM; in [5], 0.797 µM; in [6], 0.972 µM. Also, the GI50 was 0.881 µM in assay [7], 0.861 µM in assay [8], 0.855 µM in [9] and 0.991 µM in [10]. For the same compound, the TGI in [1] stood at 1.97 µM; in assay [2] it was 2.03 µM; in assay [3], 5.32 µM; in assay [4], 2.36 µM; in assay [5], 1.52 µM; in assay [6], 2 µM. The TGI turned out to be 1.69 µM in assay [7], 1.73 µM in [8], 1.55 µM in assay [9] and 2.27 µM in [10].
